Results on 28 molecules are retold here after ChEMBL document CHEMBL3739402, “Chromanones: selective and reversible monoamine oxidase B inhibitors with nanomolar potency” (Medchemcomm, 2015).

Data set [1] deals with T1, Amine oxidase [flavin-containing] B (Homo sapiens, UniProt P27338).
T1 sequence (P27338 whole entry): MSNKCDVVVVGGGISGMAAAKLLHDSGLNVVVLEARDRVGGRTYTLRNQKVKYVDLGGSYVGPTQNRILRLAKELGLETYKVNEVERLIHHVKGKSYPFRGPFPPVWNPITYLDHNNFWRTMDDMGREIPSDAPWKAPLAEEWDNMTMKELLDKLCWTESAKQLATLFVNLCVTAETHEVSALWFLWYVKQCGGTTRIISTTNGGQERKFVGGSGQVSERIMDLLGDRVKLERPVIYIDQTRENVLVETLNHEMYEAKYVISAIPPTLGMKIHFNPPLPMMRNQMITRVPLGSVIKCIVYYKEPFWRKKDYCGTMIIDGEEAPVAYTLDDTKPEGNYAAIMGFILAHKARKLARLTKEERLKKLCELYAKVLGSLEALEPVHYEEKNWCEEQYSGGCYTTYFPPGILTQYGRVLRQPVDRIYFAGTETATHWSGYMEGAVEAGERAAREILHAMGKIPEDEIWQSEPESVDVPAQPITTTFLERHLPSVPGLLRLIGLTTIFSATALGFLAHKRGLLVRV
The data set can be described thus: Inhibition of human MAO-B using p-tyramine as substrate assessed as production of H2O2 from p-tyramine incubated for 15 mins by Amplex Red MAO assay.

The target of data set [2] is T2, Amine oxidase [flavin-containing] A (Homo sapiens, UniProt P21397).
T2 sequence (P21397 whole entry): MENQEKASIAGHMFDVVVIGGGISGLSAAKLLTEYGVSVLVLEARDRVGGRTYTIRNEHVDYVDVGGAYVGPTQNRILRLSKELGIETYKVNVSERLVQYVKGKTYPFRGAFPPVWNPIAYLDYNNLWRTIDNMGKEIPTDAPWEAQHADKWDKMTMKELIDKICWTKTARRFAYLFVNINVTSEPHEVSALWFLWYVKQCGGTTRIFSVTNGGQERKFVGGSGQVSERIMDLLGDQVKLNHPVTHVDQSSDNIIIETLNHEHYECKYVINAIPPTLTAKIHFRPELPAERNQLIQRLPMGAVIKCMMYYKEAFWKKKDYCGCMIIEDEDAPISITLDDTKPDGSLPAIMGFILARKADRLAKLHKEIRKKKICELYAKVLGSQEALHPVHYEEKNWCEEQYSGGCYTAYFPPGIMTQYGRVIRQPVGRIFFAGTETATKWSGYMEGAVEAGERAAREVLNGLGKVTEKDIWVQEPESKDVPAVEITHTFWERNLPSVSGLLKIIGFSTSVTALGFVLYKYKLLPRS
As to the kind of experiment: Inhibition of human MAO-A using p-tyramine as substrate assessed as production of H2O2 from p-tyramine at 100 uM incubated for 15 mins by Amplex Red MAO assay. The following applies: 0.25 h.

The species named for data set [3] is Homo sapiens. The data set can be described thus: Selectivity index, ratio of IC50 for human MAO-A to IC50 for human MA)-B by Amplex Red MAO assay.
Data set [4] concerns the target T1, Amine oxidase [flavin-containing] B. The data set can be described thus: Time dependent inhibition of human MAO-B preincubated at twice the IC50 for 0 to 60 mins.
The target is the same in data set [5]. As to the kind of experiment: Inhibition of human MAO-B preincubated at twice the IC50 for 60 mins.
Data set [6] has the same target. As to the kind of experiment: Reversible inhibition of human MAO-B preincubated at twice the IC50 for 0 to 60 mins.
Data set [7] shares this target. The data set can be described thus: Inhibition of human MAO-B preincubated at twice the IC50 for 30 mins.
For data set [8] the target is unchanged. As to the kind of experiment: Inhibition of human MAO-B preincubated at twice the IC50 for 0 mins.
Data set [9] has as its system SH-SY5Y. The data set can be described thus: Neurotoxicity against human SH-SY5Y cells assessed as cell viability at 3 to 50 uM after 48 hrs by MTT assay. The format is toxicity, cell-based. On the technique in general: Formazan colour is commonly taken as a measure of viable cells.
Data set [10] concerns the target T1, Amine oxidase [flavin-containing] B. As to the kind of experiment: Inhibition of human MAO-B preincubated at twice the IC50 for 15 mins.
Data set [11] has the same target. As to the kind of experiment: Competitive inhibition of human MAO-B using 50 to 500 uM p-tyramine as substrate at 4.3 to 17.2 nM by Lineweaver-Burk plot analysis.
Data set [12] has as its target T2, Amine oxidase [flavin-containing] A. As to the kind of experiment: Inhibition of human MAO-A using p-tyramine as substrate assessed as production of H2O2 from p-tyramine incubated for 15 mins by Amplex Red MAO assay.

The IC50 is the concentration needed to halve the response being measured. Broadly, the inhibition is the relative decrease from the control value, in per cent. On to `N#Cc1ccc(COc2ccc3c(c2)OCCC3=O)cc1`, for which, in data set [1], the half-inhibitory concentration (IC50) was 47.3 nM. In addition, in data set [2], the inhibition at 100 µM was 27%.
`O=C1CCOc2cc(OCc3cccc(F)c3)ccc21`: the IC50 in [1] is 52.6 nM. Moreover, the Ratio IC50 in data set [3] is above 1900. In addition, the inhibition at 100 µM in [2] stood at 26%.
Regarding `O=C1CCOc2cc(OCc3ccccc3)ccc21`, the 50% inhibitory concentration (IC50) in [1] came out at 57.4 nM. Besides, the inhibition at 100 µM in data set [2] turned out to be 18%.
Regarding `O=C1CCOc2cc(OCc3ccc(Cl)cc3)ccc21`, in data set [2], the inhibition at 100 µM came out at 37%.
Consider `O=C1CCOc2cc(OCc3cccc(Cl)c3)ccc21`, for which the IC50 in data set [1] was 35.3 nM. Moreover, in data set [2], the inhibition at 100 µM was 35%.
On the same counts, the results for `CC1(C)CC(=O)c2ccc(OCc3cccc(F)c3)cc2O1` are 65.5 nM and 18%.
Turning to `CC1(C)CC(=O)c2ccc(OCc3ccc(C#N)cc3)cc2O1`, in data set [1], the half-inhibitory concentration (IC50) is 69.5 nM. Further, the inhibition at 100 µM in data set [2] is 23%.
On to `CC1(C)CC(=O)c2ccc(OCc3cccc(Cl)c3)cc2O1`, for which, in [1], the concentration for half-maximal inhibition (IC50) worked out at 55.4 nM. For the same molecule, the inhibition at 100 µM in data set [2] stood at 31%.
Turning to `CC1(C)CC(=O)c2ccc(OCc3ccc(Cl)cc3)cc2O1`, the inhibition at 100 µM in [2] came to 28%.
On to `Cc1ccc(COc2ccc3c(c2)OCCC3=O)cc1`, for which the IC50 in data set [1] was 91.3 nM. The inhibition at 100 µM in data set [2] was determined as 26%.
On to `O=C1CCOc2cc(OCc3ccc(F)cc3)ccc21`, for which, in data set [4], the TDI entry is reported as “Not Active”. In addition, the “inhibition (INH)” value is on record as 49.6% in data set [5]; “Active” in [6]; 45.5% in data set [7]; 42.4% in [8]; 44.5% in [10]; “Active” in data set [11]. Moreover, the Activity entry in data set [9] is recorded as “Non-toxic”. In addition, in data set [2], the inhibition at 100 µM stood at 43%.
Regarding `CC1(C)CC(=O)c2ccc(OCc3cccc(Br)c3)cc2O1`, in data set [1], the IC50 amounted to 52.2 nM. Also, in data set [2], the inhibition at 100 µM is 16%.
Take `O=C1COc2cc(OCc3ccccc3)ccc21`: the concentration for half-maximal inhibition (IC50) worked out at 15200 nM in [1] and 38200 nM in data set [12]. In data set [3], the Ratio IC50 was found to be 2.5.
On to `O=C1CCOc2cc(OCc3cccc(Br)c3)ccc21`, for which, in data set [1], the IC50 was 30.3 nM. Also, the inhibition at 100 µM in [2] worked out at 28%.
As to `O=C1CCOc2cc(OCCCc3ccccc3)ccc21`, the IC50 in data set [1] was 21400 nM. Besides, in [2], the inhibition at 100 µM stood at 65%.
For the molecule `O=C1CCOc2cc(OCc3ccc(Br)cc3)ccc21`, in data set [1], the IC50 was 21.6 nM. Besides, the inhibition at 100 µM in data set [2] was determined as 19%.
For `O=C1CCOc2cc(O)ccc21`, the figures for the IC50 in [1] and in [12] were 78900 nM and 71400 nM, respectively. Also, the Ratio IC50 in data set [3] was 0.9.
As for `Cc1ccc(COc2ccc3c(c2)OC(C)(C)CC3=O)cc1`, the IC50 in data set [1] amounted to 113 nM. Further, the inhibition at 100 µM in [2] amounted to 25%.
For `O=C1COc2cc(OCCCc3ccccc3)ccc21`, the results for the IC50 in data set [1] and in data set [12] were 20500 nM and 39300 nM, respectively. For the same molecule, the Ratio IC50 in data set [3] was 1.9.
For `O=C1COc2cc(OCCc3ccccc3)ccc21`, the concentration for half-maximal inhibition (IC50) in data set [1] came out at 2130 nM; in data set [12], 46400 nM. The Ratio IC50 in data set [3] is 21.8.
In the case of `Cc1cccc(COc2ccc3c(c2)OC(C)(C)CC3=O)c1`, the half-maximal inhibitory concentration (IC50) in data set [1] was 98.3 nM. The inhibition at 100 µM in data set [2] was 18%.
As to `CC1(C)CC(=O)c2ccc(OCc3ccc(Br)cc3)cc2O1`, in data set [1], the IC50 came to 45.4 nM. For the same molecule, in data set [2], the inhibition at 100 µM is 21%.
On the same counts, the results for `CC1(C)CC(=O)c2ccc(OCc3ccccc3)cc2O1` are 97.5 nM and 25%.
In the case of `CC1(C)CC(=O)c2ccc(OCc3ccc(F)cc3)cc2O1`, the Activity result in [9] is listed as “Non-toxic”. Besides, in data set [2], the inhibition at 100 µM came to 25%.
Turning to `O=C1CCOc2cc(OCc3ccccc3F)ccc21`, the IC50 in data set [1] stood at 58.8 nM. The inhibition at 100 µM in data set [2] came out at 35%.
In the case of `Cc1cccc(COc2ccc3c(c2)OCCC3=O)c1`, the inhibition at 100 µM in data set [2] is 19%.
`CC1(C)CC(=O)c2ccc(OCc3ccccc3F)cc2O1`: the half-maximal inhibitory concentration (IC50) in data set [1] is 68.8 nM. In addition, in data set [2], the inhibition at 100 µM was found to be 28%.
With `O=C1CCOc2cc(OCCc3ccccc3)ccc21`, the IC50 in data set [1] stood at 251 nM. In addition, the inhibition at 100 µM in [2] stood at 58%.
